Results from patent US20250243196A1, “CITRON KINASE INHIBITORS” (The Cleveland Clinic Foundation, priority 2021, published 2025).
Read-outs that look alike come from different tables or passages of the source.

Test system: NCI-60 human tumor cell line panel
Assay: NCI-60 human tumor cell line screen (GI50)
Format: cell-based

## Cc1cc2c(-c3ccc(NC(=O)[C@H](N)CC(C)(C)C)cc3C)ccnc2[nH]1 [Compound F-90, (2R)-2-Amino-4,4-dimethyl-N-[3-methyl-4-(2-methyl-1H-pyrrolo[2,3-b]pyridin-4-yl)phenyl]pentanamide]
786-0, Renal Cancer
  GI50: −5.744 Log(M)
A498, Renal Cancer
  GI50: −5.657 Log(M)
A549/ATCC, Non-Small Cell Lung Cancer
  GI50: −4.985 Log(M)
ACHN, Renal Cancer
  GI50: −4.978 Log(M)
BT-549, Breast Cancer
  GI50: −5.200 Log(M)
CAKI-1, Renal Cancer
  GI50: −5.347 Log(M)
CCRF-CEM, Leukemia
  GI50: −5.267 Log(M)
COLO 205, Colon Cancer
  GI50: −5.741 Log(M)
DU-145, Prostate Cancer
  GI50: −4.905 Log(M)
EKVX, Non-Small Cell Lung Cancer
  GI50: −4.950 Log(M)
HCC-2998, Colon Cancer
  GI50: −5.236 Log(M)
HCT-15, Colon Cancer
  GI50: −5.345 Log(M)
HCT-116, Colon Cancer
  GI50: −5.314 Log(M)
HL-60(TB), Leukemia
  GI50: −5.539 Log(M)
HOP-62, Non-Small Cell Lung Cancer
  GI50: −4.941 Log(M)
HOP-92, Non-Small Cell Lung Cancer
  GI50: −5.574 Log(M)
HS 578T, Breast Cancer
  GI50: −5.849 Log(M)
HT29, Colon Cancer
  GI50: −5.565 Log(M)
Homo sapiens, 786-0, 786-0, Renal Cancer, read-out: GI50
  GI50: 1.8 µM
Homo sapiens, A498, A498, Renal Cancer, read-out: GI50
  GI50: 2.2 µM
Homo sapiens, A549, A549/ATCC, Non-Small Cell Lung Cancer, read-out: GI50
  GI50: 10.3 µM
Homo sapiens, ACHN, Renal Cancer, read-out: GI50
  GI50: 10.5 µM
Homo sapiens, BT-549, BT-549, Breast Cancer, read-out: GI50
  GI50: 6.3 µM
Homo sapiens, CAKI-1, CAKI-1, Renal Cancer, read-out: GI50
  GI50: 4.5 µM
Homo sapiens, CCRF-CEM, Leukemia, read-out: GI50
  GI50: 5.4 µM
Homo sapiens, COLO 205, COLO 205, Colon Cancer, read-out: GI50
  GI50: 1.8 µM
Homo sapiens, DU-145, DU-145, Prostate Cancer, read-out: GI50
  GI50: 12.4 µM
Homo sapiens, EKVX, Non-Small Cell Lung Cancer, read-out: GI50
  GI50: 11.2 µM
Homo sapiens, HCC 2998, HCC-2998, Colon Cancer, read-out: GI50
  GI50: 5.8 µM
Homo sapiens, HCT-15, HCT-15, Colon Cancer, read-out: GI50
  GI50: 4.5 µM
Homo sapiens, HCT-116, HCT-116, Colon Cancer, read-out: GI50
  GI50: 4.9 µM
Homo sapiens, HL-60, HL-60(TB), Leukemia, read-out: GI50
  GI50: 2.9 µM
Homo sapiens, HOP-62, HOP-62, Non-Small Cell Lung Cancer, read-out: GI50
  GI50: 11.4 µM
Homo sapiens, HOP-92, HOP-92, Non-Small Cell Lung Cancer, read-out: GI50
  GI50: 2.7 µM
Homo sapiens, HT-29, HT29, Colon Cancer, read-out: GI50
  GI50: 2.7 µM
Homo sapiens, Hs-578T, HS 578T, Breast Cancer, read-out: GI50
  GI50: 1.4 µM
Homo sapiens, IGROV-1, IGROV1, Ovarian Cancer, read-out: GI50
  GI50: 12.2 µM
Homo sapiens, K562, K-562, Leukemia, read-out: GI50
  GI50: 2.8 µM
Homo sapiens, KM12, KM12, Colon Cancer, read-out: GI50
  GI50: 6.1 µM
Homo sapiens, LOX IMVI, Melanoma, read-out: GI50
  GI50: 6.2 µM
Homo sapiens, M14, M14, Melanoma, read-out: GI50
  GI50: 11 µM
Homo sapiens, MCF7, MCF7, Breast Cancer, read-out: GI50
  GI50: 5.5 µM
Homo sapiens, MDA-MB-231, MDA-MB-231/ATCC, Breast Cancer, read-out: GI50
  GI50: 7.4 µM
Homo sapiens, MDA-MB-435, MDA-MB-435, Breast Cancer, read-out: GI50
  GI50: 7 µM
Homo sapiens, MDA-MB-468, MDA-MB-468, Breast Cancer, read-out: GI50
  GI50: 2.7 µM
Homo sapiens, MOLT-4, MOLT-4, Leukemia, read-out: GI50
  GI50: 4.7 µM
Homo sapiens, Malme-3M, Melanoma, read-out: GI50
  GI50: 10.2 µM
Homo sapiens, NCI-H23, NCI-H23, Non-Small Cell Lung Cancer, read-out: GI50
  GI50: 12.2 µM
Homo sapiens, NCI-H226, NCI-H226, Non-Small Cell Lung Cancer, read-out: GI50
  GI50: 10.7 µM
Homo sapiens, NCI-H322M, Non-Small Cell Lung Cancer, read-out: GI50
  GI50: 14.3 µM
Homo sapiens, NCI-H460, NCI-H460, Non-Small Cell Lung Cancer, read-out: GI50
  GI50: 5.7 µM
Homo sapiens, NCI-H522, NCI-H522, Non-Small Cell Lung Cancer, read-out: GI50
  GI50: 13 µM
Homo sapiens, NCI/ADR-RES, Breast Cancer, read-out: GI50
  GI50: 13.4 µM
Homo sapiens, OVCAR-3, OVCAR-3, Ovarian Cancer, read-out: GI50
  GI50: 11.6 µM
Homo sapiens, OVCAR-4, OVCAR-4, Ovarian Cancer, read-out: GI50
  GI50: 7 µM
Homo sapiens, OVCAR-5, OVCAR-5, Ovarian Cancer, read-out: GI50
  GI50: 10.4 µM
Homo sapiens, OVCAR-8, OVCAR-8, Ovarian Cancer, read-out: GI50
  GI50: 13.6 µM
Homo sapiens, PC-3, Prostate Cancer, read-out: GI50
  GI50: 7.9 µM
Homo sapiens, RPMI-8226, RPMI-8226, Leukemia, read-out: GI50
  GI50: 2.8 µM
Homo sapiens, RXF 393, RXF 393, Renal Cancer, read-out: GI50
  GI50: 3.7 µM
Homo sapiens, SF-268, SF-268, CNS Cancer, read-out: GI50
  GI50: 11.1 µM
Homo sapiens, SF-295, SF-295, CNS Cancer, read-out: GI50
  GI50: 8.3 µM
